The numbers were not newly measured in patent US20110177042A1, “Method for Dedifferentiating Melanocytes” (priority 2008, published 2011), which cites them from elsewhere.

The structures appear in SMILES notation.

The subject of this data set is Notch1. Conditions: identified in cited literature (Xiao 2009; Adler 2008; Stockhausen 2005).

As to `O=C(CCCCCCC(=O)NO)NO` [suberoyl bis-hydroxamic acid], the Notch1 activation entry was “strong Notch1 activators”.
Turning to `CCCC(CCC)C(=O)O` [valproic acid], the Notch1 activation result is given as “strong Notch1 activators”.
